Some results are limits rather than exact numbers.

Series [1] relates to hTCEpi cells. As to the kind of experiment: Cell migration/proliferation (in vitro wound healing) in hTCEpi cells: compound and second active agent. The series is classed as cell-based. Conditions: 0.3 μM menadione. As to the method:
Determination of cell migration/proliferation in corneal epithelial cells is run to determine cell migration/proliferation in the presence of varying concentrations of a compound of Formula I or II, vitamin K, or nicotinic acid/nicotinamide. Cells are plated with silicone plugs. The cells are then serum starved and pre-treated with varying concentrations of a compound of Formula I or II or a control. The plugs are removed and the cells are treated with 1) EGF, 2) EGF and vitamin K or 3) EGF and nicotinic acid/nicotinamide. Cell migration is quantified from micrographs.
hTCEpi cells were plated with silicone plugs. The cells were then serum starved and pre-treated with varying concentrations of vitamin K3 analog, menadione, for 4 hours and supplemented with the varying concentrations of a compound of Formula I or II for 30 minutes. The plugs were removed. The cells were photographed and then treated with various concentrations of vitamin K, EGF, and/or a compound of Formula I or II. The cells were again photographed and cell migration was quantified from the micrographs. Additional controls run included no compound of Formula I or II and no EGF. All experiments were repeated three times.

Series [2] can be described thus: Ocular pharmacokinetics of formulations, Example 20-3. The series is classed as in vivo, Dutch Belted rabbits. Conditions: 1.0 μM Vit K3 suspension, 30 μL/eye/dose QD for 4 Days, 1 hr post dose on Day 5; for Vitamin K3 concentration in Cornea: LLOQ = 2.91 μM; for Vitamin K3 concentration in Central Choroid: LLOQ = 43.6 μM. The procedure: The study design (Table 17-1) consisted of thirty-nine (39) Dutch Belted rabbits, each receiving a 30 μL bilateral topical ocular dose. Various suspension formulations of the present application were evaluated and compared against two control formulations: a) a cyclodextrin-based eye drops solution (Control Group 13, Table 17-1), and b) a pilot suspension formulation used in previous rabbit pharmacokinetic studies, (Group 10, Table 17-1). Formula II or Compound-I was used in the test suspensions, whereas the Eye Drops solution formulation is derived with the Compound-I.
(§1) Ocular sampling occurred one hour following the first daily dose on Day 5 for all groups. Whole blood samples using K2EDTA as an anticoagulant were collected from all animals on Day 5, 1 hour post dose. The whole blood was placed on ice until samples were spun in a centrifuge to separate the plasma. Aqueous humor, conjunctiva, cornea, central retina, peripheral retina, central choroid, and peripheral choroid samples were collected following necropsy. Samples were then frozen at −70° C. or lower. For all Groups 1-13, plasma, central retina, central choroid, and cornea samples were assayed.
Additionally, Vitamin K3 concentrations were determined in plasma, central retina, central choroid, and cornea samples for animals from Groups 8 and 9. A calibration curve prepared in control matrix was used to determine the concentration of Vitamin K3.

Series [3] has as its target T1, EGFR (Homo sapiens, UniProt P00533).
T1 construct: endogenous in cells; host or cells: hTCEpi (immortalized corneal epithelial cells)
Briefly: EGFR tyrosine phosphorylation assay in hTCEpi cells with a second active agent. In kind it is cell-based. Conditions: vitamin K 50 μM, nicotinic acid 10 μM or nicotinamide 10 μM, 4 hours pre-treatment, EGF 50 ng/ml. The procedure:
An EGFR tyrosine assay in corneal epithelial cells is run to determine if Vitamin K or nicotinic acid/nicotinamide can overcome inhibition of EGFR and if there is an increase in EGFR activity. […] Cells are harvested cells and immunoblotted for determination of phosphorylated EGFR (tyrosine 1068 and tyrosine 1045) and total EGFR concentration which was used to determine receptor activity (IC50).
The cells were then incubated with EGF (50 ng/ml) for 15 minutes. Cells were harvested and cell lysates were immunoblotted for determination of phosphorylated EGFR (tyrosine 1068 and tyrosine 1045) and total EGFR concentration.

The target in series [4] is T1, EGFR. Briefly: Mechanism by which menadione enhances EGFR activity (hTCEpi immunoblot). Also noted: Kinetics of EGFR degradation: dose or concentration left out as unconfirmed. In kind it is cell-based. The procedure:
[…] Cells were then incubated with 8.0 nM (50 ng/ml) EGF for 0-3 hours. The cells were lysed and the lysates were resolved by SDS-PAGE, and immunoblotted for phosphorylated EGFR (pY1068), total EGFR, or α-tubulin.

A short description of series [5]: Particle size distribution by laser diffraction light scattering. The series is classed as physicochemical. Conditions: 5% menadione, HPMC formulation, roller milled; 40° C. The procedure:
Particle size distribution can be analyzed using laser diffraction light scattering, e.g., with a Horiba LA-950 V2. Generic assumptions are made in setting conditions and the refractive index value. The distributions are volume based. Sample density is adjusted to a generic range of percent transmission on the blue LED light source. A small sample cell (filled with water) can be used rather than the flow through cell, to minimize sample quantity.
Particle size distribution was analyzed using laser diffraction light scattering with a Horiba LA-950 V2. Generic assumptions were made in setting conditions and the refractive index value. The distributions were volume based. Sample density was adjusted to a generic range of percent transmission on the blue LED light source. A small sample cell (filled with water) was used rather than the flow through cell, to minimize sample quantity.

The nature of series [6]: Ocular pharmacokinetics of formulations, Example 20-5. In kind it is in vivo, Dutch Belted rabbits. The procedure: The study design (Table 19-1) consisted of forty-seven (47) Dutch Belted rabbits, each receiving a 30 μL bilateral topical ocular dose. Various suspension formulations of the present application were evaluated and compared against a cyclodextrin-based eye drops solution (Control Group 1, Table 19-1). Formula II or Compound-I was used in the test suspensions as well as the Eye Drops solution.
as §1, with “1-15,” for “1-13,”, “assayed. For Group 5 only, samples were analyzed for Vitamin K3.” for “assayed.”
An analytical method for the analysis of Vitamin K3 was determined in plasma, central retina, central choroid, and cornea samples from Group 5 animals. A calibration curve prepared in control vitreous humor was used to determine the concentration of Vitamin K3. Internal standard (IS) responses were inconsistent for the central choroid and plasma samples. Thus, positive plasma results were likely due to the reduced IS response.

Series [7] has as its system corneas of C57/Bl mice. As to the kind of experiment: Corneal wound healing in vivo with a second active agent. Conditions: 0.3 μM menadione, 48 hours pre-treatment. As to the method: Determination of the effects of a compound of Formula I or II and/or a second active agent on corneal wound healing was determined in mice. Corneas of C57/Bl mice are wounded and then pre-treated with a compound of Formula I or II, followed by addition of EGF, vitamin K, or nicotinic acid/nicotinamide. Wound size and closure are monitored.
Corneas of 8 week old C57/Bl mice were pre-treated with topical administration of vehicle, 0.3 μM menadione, 10 μM of a compound of Formula I or II, 0.3 μM menadione and 10 μM of a compound of Formula I or II 48 hours before the corneas were wounded (1.5 mm superficial epithelial wound). Wound size was monitored by fluorescein staining and fluorescent photography. Wound closure was monitored over the course of 40 hours.

The mark [8] stands for this setting: Group 8: Formula II 4 mg/mL, HPMC.
[9] abbreviates: Group 9: Formula II 4 mg/mL, Pluronic.

T1 sequence (P00533 25-1210): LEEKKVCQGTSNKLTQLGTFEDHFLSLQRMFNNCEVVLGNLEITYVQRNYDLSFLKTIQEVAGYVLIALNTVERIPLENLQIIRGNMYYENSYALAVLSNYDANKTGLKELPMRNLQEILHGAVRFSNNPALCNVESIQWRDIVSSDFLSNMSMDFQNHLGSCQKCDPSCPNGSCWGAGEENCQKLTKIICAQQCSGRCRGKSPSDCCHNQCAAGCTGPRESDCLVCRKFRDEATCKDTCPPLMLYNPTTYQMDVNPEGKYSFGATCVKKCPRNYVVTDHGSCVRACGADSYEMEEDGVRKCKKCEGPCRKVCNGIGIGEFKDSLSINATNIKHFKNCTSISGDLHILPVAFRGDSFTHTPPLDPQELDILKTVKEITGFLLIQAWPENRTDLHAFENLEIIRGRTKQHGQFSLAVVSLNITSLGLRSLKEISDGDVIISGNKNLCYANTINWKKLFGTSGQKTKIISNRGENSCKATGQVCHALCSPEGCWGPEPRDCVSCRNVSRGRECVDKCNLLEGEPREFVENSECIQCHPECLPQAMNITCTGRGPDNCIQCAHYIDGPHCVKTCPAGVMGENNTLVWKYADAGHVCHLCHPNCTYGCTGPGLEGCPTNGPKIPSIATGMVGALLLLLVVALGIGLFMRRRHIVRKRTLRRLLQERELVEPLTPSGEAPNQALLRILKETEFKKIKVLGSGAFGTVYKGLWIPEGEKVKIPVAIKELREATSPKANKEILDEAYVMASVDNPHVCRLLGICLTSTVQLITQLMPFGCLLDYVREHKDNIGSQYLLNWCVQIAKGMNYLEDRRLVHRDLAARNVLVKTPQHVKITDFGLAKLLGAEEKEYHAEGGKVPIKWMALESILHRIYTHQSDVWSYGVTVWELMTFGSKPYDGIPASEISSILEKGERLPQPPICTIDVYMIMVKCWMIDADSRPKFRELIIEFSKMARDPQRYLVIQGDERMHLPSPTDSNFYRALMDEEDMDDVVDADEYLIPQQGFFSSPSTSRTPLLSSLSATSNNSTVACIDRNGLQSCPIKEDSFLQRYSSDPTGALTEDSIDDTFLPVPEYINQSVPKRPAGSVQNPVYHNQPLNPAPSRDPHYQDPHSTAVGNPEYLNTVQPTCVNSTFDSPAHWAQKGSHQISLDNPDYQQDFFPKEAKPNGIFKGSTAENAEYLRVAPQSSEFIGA

In the case of `CC1=CC(=O)c2ccccc2C1=O` [menadione], in series [1], the “Effect on inhibition of in vitro wound healing by a compound of Formula I or II” value is “reversed”. Moreover, the “Vitamin K3 concentration in Cornea” value in series [2] (setting [8]) and in series [2] (setting [9]) was “<LLOQ” throughout. Further, the “Vitamin K3 concentration in Central Choroid” value in series [2] (setting [8]) and in series [2] (setting [9]) was “<LLOQ” throughout. In addition, the “Vitamin K3 concentration in Plasma” value in series [2] (Group 8: Formula II 4 mg/mL, HPMC, average n = 3, LLOQ = 0.291 μM) is listed as “<LLOQ”. Besides, in series [2] (Group 9: Formula II 4 mg/mL, Pluronic, LLOQ = 11.6 μM), the “Vitamin K3 concentration in Central Retina” value is listed as “<LLOQ”. The figures for the “Effect on Formula I or II compound-mediated EGFR inhibition” value in series [3] and in series [3] (listed as vitamin K3) were “overcome” and “most effectively attenuated”, respectively. In addition, in series [4] (0.3 or 3.0 μM, 4 hours, 50 ng/ml EGF 0-3 hours), the “Basal EGFR phosphorylation and EGFR dephosphorylation” value is listed as “did not change”. In series [4] (menadione), the “Kinetics of EGFR degradation” value was “slowed the kinetics of EGFR degradation”. In addition, the Stability of suspension result in series [5] is on record as “short term stability”. The “Vitamin K3 in central retina and cornea samples” value in series [6] (Group 5) was “no quantitative results”. In series [6] (Group 5: Compound-I 4 mg/mL suspension with Vitamin K3 1 μM, QD for 4 days, 1 hr post dose on Day 5, LLOQ = 0.145 μM), the “Vitamin K3 Cornea concentration” value was “<LLOQ”. Further, the “Vitamin K3 Central Retina concentration” value in series [6] (Group 5: Compound-I 4 mg/mL suspension with Vitamin K3 1 μM, QD for 4 days, 1 hr post dose on Day 5, LLOQ = 0.581 μM) is reported as “<LLOQ”. The “Effect on corneal epithelial wound healing after pre-treatment with a compound of Formula I or II (10 μM)” value in series [7] was “reversed the effects”.

These data come from US10183014B2, “Ocular formulations for drug-delivery and protection of the anterior segment of the eye” (PanOptica, Inc., priority 2014, dated 2019).
